Where a name gives a salt, the structure may show the parent alone.
Target: T1, canine TRPM8 (Canis lupus familiaris, UniProt Q1A7N1)
T1 construct: expressed in transfected cells
Experiment: In vitro canine TRPM8 functional assay (icilin-induced intracellular Ca2+, FLIPR/FDSS);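 note: intracellular Ca2+ tracked with a Ca2+-sensitive fluorescent dye, compound applied 5 min before icilin was added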
Format: cell-based
Settings: HEK293 cells stably expressing canine TRPM8; for inhibition at 0.2 µM: 0.200 μM compound, icilin challenge (~80% maximal response), read-out: % Inh. @ 0.200 μM; for IC50: icilin challenge, eight-point dose-response

T1 sequence (Q1A7N1 1-1104): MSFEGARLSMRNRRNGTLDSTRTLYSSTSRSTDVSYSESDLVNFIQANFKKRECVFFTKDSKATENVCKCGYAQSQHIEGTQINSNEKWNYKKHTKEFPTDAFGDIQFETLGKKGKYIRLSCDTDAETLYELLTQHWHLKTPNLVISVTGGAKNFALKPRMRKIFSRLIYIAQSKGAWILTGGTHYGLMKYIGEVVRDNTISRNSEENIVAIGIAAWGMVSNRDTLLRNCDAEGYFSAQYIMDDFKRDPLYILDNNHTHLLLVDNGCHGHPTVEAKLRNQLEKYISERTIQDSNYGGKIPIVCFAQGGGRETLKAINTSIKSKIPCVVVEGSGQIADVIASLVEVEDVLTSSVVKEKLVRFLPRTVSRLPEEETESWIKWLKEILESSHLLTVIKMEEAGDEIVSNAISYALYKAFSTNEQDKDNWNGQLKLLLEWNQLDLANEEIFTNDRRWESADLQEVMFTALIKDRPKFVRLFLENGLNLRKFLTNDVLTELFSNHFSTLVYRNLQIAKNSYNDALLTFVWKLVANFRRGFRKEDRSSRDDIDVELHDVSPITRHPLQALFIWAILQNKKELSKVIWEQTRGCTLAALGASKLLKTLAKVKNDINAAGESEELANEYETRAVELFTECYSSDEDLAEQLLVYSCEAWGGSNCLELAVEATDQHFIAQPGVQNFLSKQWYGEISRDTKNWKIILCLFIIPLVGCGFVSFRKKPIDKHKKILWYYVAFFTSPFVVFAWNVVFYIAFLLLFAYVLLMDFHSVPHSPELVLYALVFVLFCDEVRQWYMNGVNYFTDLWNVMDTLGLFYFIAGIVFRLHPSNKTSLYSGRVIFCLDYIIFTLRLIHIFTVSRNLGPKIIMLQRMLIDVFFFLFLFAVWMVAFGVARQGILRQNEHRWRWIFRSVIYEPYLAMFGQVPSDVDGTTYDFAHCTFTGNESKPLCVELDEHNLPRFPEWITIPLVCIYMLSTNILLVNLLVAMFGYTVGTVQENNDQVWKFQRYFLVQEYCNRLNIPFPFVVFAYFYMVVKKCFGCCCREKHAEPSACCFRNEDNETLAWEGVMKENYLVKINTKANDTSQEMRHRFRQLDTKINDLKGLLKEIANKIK

Compound | inhibition at 0.2 µM [%] | IC50 [nM]
FC(F)(F)Oc1ccccc1-c1ccc2nc(C3=NC4(CCCCC4)CO3)[nH]c2c1 [Cpd 2, 2-[5-(2-Trifluoromethoxy-phenyl)-1H-benzimidazol-2-yl]-3-oxa-1-aza-spiro[4.5]dec-1-ene] | 106 | 7
FC(F)(F)Oc1ccccc1-c1ccc2[nH]c(C3=NCC4(CCCCC4)O3)nc2c1 [Cpd 3, 2-[5-(2-Trifluoromethoxy-phenyl)-1H-benzimidazol-2-yl]-1-oxa-3-aza-spiro[4.5]dec-2-ene] | 60 | 
FC(F)(F)c1ccccc1-c1ccc2[nH]c(C3=NCC4(CCCCC4)O3)nc2c1 [Cpd 4, 2-[5-(2-Trifluoromethyl-phenyl)-1H-benzimidazol-2-yl]-1-oxa-3-aza-spiro[4.5]dec-2-ene] | 84 | 
FC(F)(F)c1ccccc1-c1ccc2[nH]c(C3=NOC4(CCOCC4)C3)nc2c1 [Cpd 9, 3-[5-(2-Trifluoromethylphenyl)-1H-benzimidazol-2-yl]-1,8-dioxa-2-aza-spiro[4.5]dec-2-ene] | 101 | 
FC(F)(F)Cc1ccccc1-c1ccc2[nH]c(C3=NOC4(CCCCC4)C3)nc2c1 [Cpd 11, 3-{5-[2-(2,2,2-Trifluoroethyl)-phenyl]-1H-benzimidazol-2-yl}-1-oxa-2-aza-spiro[4.5]dec-2-ene] | 102 | 1.5
Fc1cc(-c2ccccc2C(F)(F)F)cc2nc(C3=NOC4(CCCCC4)C3)[nH]c12 [Cpd 14, 3-[7-Fluoro-5-(2-trifluoromethyl-phenyl)-1H-benzimidazol-2-yl]-1-oxa-2-aza-spiro[4.5]dec-2-ene hydrochloride] | 102 | 
CC1C(c2nc3cc(-c4ccccc4C(F)(F)F)ccc3[nH]2)=NOC12CCCCC2 (stereo not shown) [Cpd 15, 4-Methyl-3-[5-(2-trifluoromethyl-phenyl)-1H-benzimidazol-2-yl]-1-oxa-2-aza-spiro[4.5]dec-2-ene hydrochloride] | 102 | 3.9
Cc1cc(-c2ccccc2OC(F)F)cc2nc(C3=NOC4(CCCCC4)C3)[nH]c12 [Cpd 20, 3-[5-(2-Difluoromethoxyphenyl)-7-methyl-1H-benzimidazol-2-yl]-1-oxa-2-aza-spiro[4.5]dec-2-ene hydrochloride] | 103 | 1.8
OCCCc1cc(-c2ccccc2C(F)(F)F)cc2nc(C3=NOC4(CCCCC4)C3)[nH]c12 [Cpd 22, 3-[2-(1-Oxa-2-aza-spiro[4.5]dec-2-en-3-yl)-6-(2-trifluoromethylphenyl)-3H-benzimidazol-4-yl]-propan-1-ol hydrochloride] | 103 | 
Fc1ccccc1-c1ccc2[nH]c(C3=NOC4(CCCCC4)C3)nc2c1 [Cpd 23, 3-[5-(2-Fluoro-phenyl)-1H-benzimidazol-2-yl]-1-oxa-2-aza-spiro[4.5]dec-2-ene trifluoroacetic acid salt] | 103 | 
Cc1c(-c2ccccc2C(F)(F)F)ccc2[nH]c(C3=NOC4(CCCCC4)C3)nc12 [Cpd 24, 3-[4-Methyl-5-(2-trifluoromethyl-phenyl)-1H-benzimidazol-2-yl]-1-oxa-2-aza-spiro[4.5]dec-2-ene hydrochloride] | 103 | 5.6
OC/C=C\c1cc(-c2ccccc2C(F)(F)F)cc2nc(C3=NOC4(CCCCC4)C3)[nH]c12 [Cpd 25, 3-[2-(1-Oxa-2-aza-spiro[4.5]dec-2-en-3-yl)-6-(2-trifluoromethylphenyl)-3H-benzimidazol-4-yl]-prop-2-en-1-ol] | 100 | 0.8
Fc1cccc(F)c1-c1ccc2[nH]c(C3=NOC4(CCCCC4)C3)nc2c1 [Cpd 26, 3-[5-(2,6-Difluoro-phenyl)-1H-benzimidazol-2-yl]-1-oxa-2-aza-spiro[4.5]dec-2-ene trifluoroacetic acid salt] | 100 | 
FC(F)(F)c1ccccc1-c1ccc2[nH]c(C3=NC4(CCOCC4)CO3)nc2c1 [Cpd 29, 2-[5-(2-Trifluoromethyl-phenyl)-1H-benzimidazol-2-yl]-3,8-dioxa-1-aza-spiro[4.5]dec-1-ene] | 71 | 100
Fc1ccccc1-c1ccc2[nH]c(C3=NOC4(CCOCC4)C3)nc2c1 [Cpd 31, 3-[5-(2-Fluoro-phenyl)-1H-benzimidazol-2-yl]-1,8-dioxa-2-aza-spiro[4.5]dec-2-ene hydrochloride] | 99 | 13.4
Cc1cc(-c2ccccc2C(F)(F)F)cc2nc(C3=NOC4(CCOCC4)C3)[nH]c12 [Cpd 32, 3-[7-Methyl-5-(2-trifluoromethyl-phenyl)-1H-benzimidazol-2-yl]-1,8-dioxa-2-aza-spiro[4.5]dec-2-ene hydrochloride] | 100 | 4.9
FC(F)(F)c1ccccc1-c1cc(Br)c2[nH]c(C3=NOC4(CCOCC4)C3)nc2c1 [Cpd 33, 3-[7-Bromo-5-(2-trifluoromethyl-phenyl)-1H-benzimidazol-2-yl]-1,8-dioxa-2-aza-spiro[4.5]dec-2-ene hydrochloride] | 100 | 1.7

Compound | inhibition at 0.2 µM [%] | IC50 [nM]
N#Cc1cc(-c2ccccc2C(F)(F)F)cc2nc(C3=NOC4(CCOCC4)C3)[nH]c12 [Cpd 35, 2-(1,8-Dioxa-2-aza-spiro[4.5]dec-2-en-3-yl)-6-(2-trifluoromethyl-phenyl)-3H-benzimidazole-4-carbonitrile hydrochloride] | 100 | 5.2
CC1(C)CCC2(CC1)CC(c1nc3cc(-c4ccccc4C(F)(F)F)ccc3[nH]1)=NO2 [Cpd 36, 8,8-Dimethyl-3-[5-(2-trifluoromethyl-phenyl)-1H-benzimidazol-2-yl]-1-oxa-2-aza-spiro[4.5]dec-2-ene hydrochloride] | 99 | 12.5
CC1(C)CCC2(CC1)CC(c1nc3cc(-c4ccccc4Cl)ccc3[nH]1)=NO2 [Cpd 37, 3-[5-(Chloro-phenyl)-1H-benzimidazol-2-yl]-8,8-dimethyl-1-oxa-2-aza-spiro[4.5]dec-2-ene hydrochloride] | 99 | 5.2
Fc1cccc(F)c1-c1ccc2[nH]c(C3=NOC4(CCOCC4)C3)nc2c1 [Cpd 38, 3-[5-(2,6-Difluoro-phenyl)-1H-benzimidazol-2-yl]-1,8-dioxa-2-aza-spiro[4.5]dec-2-ene hydrochloride] | 99 | 8.3
CC1(C)CCC2(CC1)CC(c1nc3cc(-c4ccccc4C(F)(F)F)cc(C(F)(F)F)c3[nH]1)=NO2 [Cpd 39, 8,8-Dimethyl-3-[7-trifluoromethyl-5-(2-trifluoromethyl-phenyl)-1H-benzimidazol-2-yl]-1-oxa-2-aza-spiro[4.5]dec-2-ene hydrochloride] | 99 | 6.3
Clc1ccccc1-c1ccc2[nH]c(C3=NOC4(CCOCC4)C3)nc2c1 [Cpd 40, 3-[5-(2-Chloro-phenyl)-1H-benzimidazol-2-yl]-1,8-dioxa-2-aza-spiro[4.5]dec-2-ene hydrochloride] | 98 | 11
CC1(C)CCC2(CC1)CC(c1nc3cc(-c4ccccc4C(F)(F)F)cc(Cl)c3[nH]1)=NO2 [Cpd 41, 3-[7-Chloro-5-(2-trifluoromethyl-phenyl)-1H-benzimidazol-2-yl]-8,8-dimethyl-1-oxa-2-aza-spiro[4.5]dec-2-ene hydrochloride] | 92 | 50.2
CC(C)(O)CCc1cc(-c2ccccc2C(F)(F)F)cc2nc(C3=NOC4(CCCCC4)C3)[nH]c12 [Cpd 43, 2-Methyl-4-[2-(1-oxa-2-aza-spiro[4.5]dec-2-en-3-yl)-6-(2-trifluoromethylphenyl)-3H-benzimidazol-4-yl]-butan-2-ol] | 99 | 1.7
Fc1cccc(F)c1-c1cc(Cl)c2[nH]c(C3=NOC4(CCCCC4)C3)nc2c1 [Cpd 44, 3-[7-Chloro-5-(2,6-difluorophenyl)-1H-benzimidazol-2-yl]-1-oxa-2-aza-spiro[4.5]dec-2-ene methanesulfonate] | 100 | 2.1
Clc1ccccc1-c1ccc2[nH]c(C3=NOC4(CCCCC4)C3)nc2c1 [Cpd 45, 3-[5-(2-Chlorophenyl)-1H-benzimidazol-2-yl]-1-oxa-2-aza-spiro[4.5]dec-2-ene hydrochloride] | 97 | 
Cc1cc(-c2ccccc2C(F)(F)F)cc2nc(C3=NOC4(CCCCC4)C3)[nH]c12 [Cpd 46, 3-[7-Methyl-5-(2-trifluoromethylphenyl)-1H-benzimidazol-2-yl]-1-oxa-2-aza-spiro[4.5]dec-2-ene hydrochloride] | 97 | 1.8
Cc1cc(-c2ccccc2F)cc2nc(C3=NOC4(CCCCC4)C3)[nH]c12 [Cpd 47, 3-[7-Methyl-5-(2-fluorophenyl)-1H-benzimidazol-2-yl]-1-oxa-2-aza-spiro[4.5]dec-2-ene hydrochloride] | 97 | 6.9
Cc1cc(-c2c(F)cccc2F)cc2nc(C3=NOC4(CCCCC4)C3)[nH]c12 [Cpd 48, 3-[7-Methyl-5-(2,6-difluorophenyl)-1H-benzimidazol-2-yl]-1-oxa-2-aza-spiro[4.5]dec-2-ene hydrochloride] | 97 | 3.9
Fc1ccccc1-c1cc(Cl)c2[nH]c(C3=NOC4(CCCCC4)C3)nc2c1 [Cpd 49, 3-[7-Chloro-5-(2-fluorophenyl)-1H-benzimidazol-2-yl]-1-oxa-2-aza-spiro[4.5]dec-2-ene methanesulfonate] | 101 | 6.1
FC(F)(F)Oc1ccccc1-c1cc(Cl)c2[nH]c(C3=NOC4(CCCCC4)C3)nc2c1 [Cpd 50, 3-[7-Chloro-5-(2-trifluoromethoxyphenyl)-1H-benzimidazol-2-yl]-1-oxa-2-aza-spiro[4.5]dec-2-ene methanesulfonate] | 101 | 1.9
COCCCc1cc(-c2ccccc2C(F)(F)F)cc2nc(C3=NOC4(CCCCC4)C3)[nH]c12 [Cpd 52, 3-[7-(3-Methoxy-propyl)-5-(2-trifluoromethylphenyl)-1H-benzimidazol-2-yl]-1-oxa-2-aza-spiro[4.5]dec-2-ene hydrochloride] | 97 | 1
